Measured values from paper PMC8199500, “Novel Bis- and Mono-Pyrrolo[2,3-d]pyrimidine and Purine Derivatives: Synthesis, Computational Analysis and Antiproliferative Evaluation” (Molecules, 2021).
Where two headings read alike, the source gives them in different places. One block for each molecule: values may come before it.

Experiments:
[1] = tested on: metastatic colorectal adenocarcinoma (SW620) cells; assay: MTT proliferation assay, SW620 cells; assay type: cell-based, human
Protocol: (§1) Human carcinoma cell lines A549 (lung carcinoma), HeLa (cervical carcinoma), SW620 (colorectal adenocarcinoma, metastatic) and CFPAC-1 (pancreatic cancer, derived from metastatic: liver), and normal human foreskin (HFF-1) fibroblasts were obtained from the American Type Culture Collection (ATCC, Manassas, VA, USA). Cells were cultured in humidified atmosphere at 37 °C with 5% CO2. As growth medium, Dulbecco′s modified Eagle medium (DMEM) was used with the addition of fetal bovine serum (10%), L-glutamine (2 mM) and antibiotics: streptomycin ([…]) and penicillin (100 U/mL).
(§2) Cells were seeded onto 96-well microtiter plates at a seeding density of 3000 cells/well for carcinoma cell lines, and 5000 cells/well for normal human fibroblasts. The next day, cells were treated with test agents in five different concentrations (0.01–100 µM) and further incubated for 72 h. […] Following 72 h incubation, the MTT assay was performed and measured absorbances were transformed into percentage of cell growth as described previously. Results were obtained from three independent experiments. IC50 values were calculated using linear regression analysis and results were statistically analyzed by ANOVA, Tukey post-hoc test (p < 0.05).

[2] = tested on: cervical carcinoma (HeLa) cells; assay: MTT proliferation assay, HeLa cells; assay type: cell-based, human; details: 72 h incubation
Protocol: as §1, §2

[3] = tested on: normal human foreskin fibroblasts (HFF-1); assay: MTT proliferation assay, normal fibroblasts HFF-1; assay type: cell-based; details: 72 h incubation
Protocol: as §1, §2

[4] = tested on: ductal pancreatic adenocarcinoma (CFPAC-1) cells; assay: MTT proliferation assay, CFPAC-1 cells; assay type: cell-based, human
Protocol: as §1, §2

[5] = tested on: lung adenocarcinoma (A549) cells; assay: MTT proliferation assay, A549 cells; assay type: cell-based, human
Protocol: as §1, §2

[6] = tested on: human tumor cell lines (A549, HeLa, CFPAC-1, SW620); assay: MTT proliferation assay, all evaluated tumor cell lines; assay type: cell-based; details: read-out: antiproliferative activity (IC50) over the evaluated tumor cell lines
Protocol: as §1, §2

[7] = tested on: CFPAC-1 cells; assay: Annexin V assay for apoptosis detection; assay type: cell-based, human; details: for viability at 3.95 µM / viability at 1.58 µM: Homo sapiens, CFPAC-1, read-out: viable cells (Ann−/PI−)
Protocol: Cells were seeded into 8-well chambers (Lab-tek II Chamber Slides, Thermo Fisher Scientific, Waltham, MA, USA) in a concentration of 2 × 10^4 cells per well and treated with 2 × IC50 and 5 × IC50 concentrations of selected compounds for 48 and 72 h. Staining of the cells was performed by Annexin-V-FITC Staining kit (Santa Cruz Biotechnology, Dallas, TX, USA) according to the manufacturer′s instructions. Cells were visualised by fluorescent microscope (Olympus, Tokyo, Japan) at magnification of 40×.

[8] = Homo sapiens, SW-620, 72 h incubation
[9] = Homo sapiens, CFPAC-1, 72 h incubation
[10] = Homo sapiens, A549, 72 h incubation
[11] = 48 h treatment, 1.85 µM (2 × IC50)
[12] = 48 h treatment, 3.95 µM (5 × IC50)
[13] = 72 h treatment, 1.85 µM (2 × IC50)
[14] = 72 h treatment, 3.95 µM (5 × IC50)

Molecule: Clc1ncnc2c1ccn2CCn1cc(COc2ccc(-c3ccc(OCc4cn(CCn5ccc6c(Cl)ncnc65)nn4)cc3)cc2)nn1 [5b, 4,4′-Bis{[1-(2-(4-chloro-7H-pyrrolo[2,3-d]pyrimidin-7-yl)ethyl)-1H-1,2,3-triazol-4-yl]-methoxy}-1,1′-biphenyl]
IC50 [1, 8]: > 100 µM | IC50 ([2]; Homo sapiens, HeLa): > 100 µM | IC50 [3]: 0.13 µM | IC50 [4, 9]: > 100 µM | IC50 [5, 10]: 6.3 ± 1.2 µM

Molecule: c1nc(N2CCCCC2)c2ccn(CCn3cc(COc4ccc(OCc5cn(CCn6ccc7c(N8CCCCC8)ncnc76)nn5)cc4)nn3)c2n1 [6a, 1,4-Bis{[1-(2-(4-(piperidin-1-yl)-7H-pyrrolo[2,3-d]pyrimidin-7-yl)ethyl)-1H-1,2,3-triazol-4-yl]methoxy}benzene]
IC50 [1, 8]: > 100 µM | IC50 ([2]; Homo sapiens, HeLa): > 100 µM | IC50 [4, 9]: > 100 µM | IC50 [5, 10]: > 100 µM | melting point: 185 to 187 °C

Molecule: {1-[2-(4-(Piperidin-1-yl)-7H-pyrrolo[2,3-d]pyrimidin-7-yl)ethyl]-1H-1,2,3-triazol-4-yl}methyl ether [6d]
IC50 ([1]; 72 h incubation): 45.5 ± 3.3 µM | IC50 [2]: 28.2 ± 9 µM | IC50 [6]: 28.2 to 65.2 µM | IC50 ([4]; 72 h incubation): 37.9 ± 3.7 µM | IC50 ([5]; 72 h incubation): 51.9 ± 3 µM

Molecule: c1nc(N2CCCCC2)c2ccn(CCn3cc(CCCc4cn(CCn5ccc6c(N7CCCCC7)ncnc65)nn4)nn3)c2n1 [6c, 1,3-Bis{1-[2-(4-(piperidin-1-yl)-7H-pyrrolo[2,3-d]pyrimidin-7-yl)ethyl]-1H-1,2,3-triazol-4-yl}propane]
IC50 [1, 8]: 65.2 ± 4.8 µM | IC50 ([2]; Homo sapiens, HeLa): 33.7 ± 8.9 µM | IC50 ([6]; Homo sapiens): 28.2 to 65.2 µM | IC50 [4, 9]: 48.7 ± 1.5 µM | IC50 [5, 10]: 59.3 ± 4.9 µM | melting point: 145 to 147 °C

Molecule: C#CCOc1ccc(-c2ccc(OCc3cn(CCn4ccc5c(Cl)ncnc54)nn3)cc2)cc1 [5f, 4-chloro-7-{2-[4-(((4′-(prop-2-yn-1-yloxy)-[1,1′-biphenyl]-4-yl)oxy)methyl)-1H-1,2,3-triazol-1-yl]ethyl}-7H-pyrrolo[2,3-d]pyrimidine]
IC50 [1, 8]: 8 ± 1.8 µM | IC50 ([2]; Homo sapiens, HeLa): 0.98 ± 0.44 µM | mode of cell death in CFPAC-1 cells ([7]; 48 and 72 h, 2 × IC50 and 5 × IC50): induces apoptosis and primary necrosis in CFPAC-1 cells in a concentration- and time-dependent manner | early apoptotic cells (Ann+) [7, 11]: 11.76 ± 3.58% | late apoptotic/primary necrotic cells (Ann+/PI+) [7, 11]: 5.88 ± 1.44% | secondary necrotic cells (PI+) [7, 11]: 2.72 ± 0.56% | early apoptotic cells (Ann+) [7, 12]: 21.21 ± 1.35% | late apoptotic/primary necrotic cells (Ann+/PI+) [7, 12]: 6.56 ± 0.24% | secondary necrotic cells (PI+) [7, 12]: 4.05 ± 1.22% | decrease in cell viability vs control ([7]; 48 h treatment, 5 × IC50): 28.4% | increase in the percentage of cells in early apoptosis vs control ([7]; 48 h treatment, 5 × IC50): 21.21% | early apoptotic cells (Ann+) [7, 13]: 30.36 ± 1.49% | late apoptotic/primary necrotic cells (Ann+/PI+) [7, 13]: 10.71 ± 4.89% | secondary necrotic cells (PI+) [7, 13]: 2.68 ± 0.37% | early apoptotic cells (Ann+) [7, 14]: 39.63 ± 8.54% | late apoptotic/primary necrotic cells (Ann+/PI+) [7, 14]: 26.14 ± 2.57% | secondary necrotic cells (PI+) [7, 14]: 6.3 ± 2.45% | increase in early apoptotic cells vs control ([7]; 72 h treatment, 2 × IC50): 24.08% | increase in early apoptotic cells vs control ([7]; 72 h treatment, 5 × IC50): 33.35% | rise in late apoptotic/primary necrotic cells vs control ([7]; 72 h treatment, 5 × IC50): 26.14% | viability at 3.95 µM [7, 12]: 68.2 ± 0.94% | viability at 1.58 µM ([7]; 48 h treatment): 79.6 ± 2.57% | viability at 3.95 µM [7, 14]: 27.9 ± 3.23% | viability at 1.58 µM ([7]; 72 h treatment): 56.2 ± 6.56% | IC50 [3]: 0.62 µM | IC50 [4, 9]: 0.79 ± 0.03 µM | IC50 [5, 10]: 6.9 ± 1.1 µM

Molecule: c1nc(N2CCCCC2)c2ccn(CCn3cc(COc4ccc(-c5ccc(OCc6cn(CCn7ccc8c(N9CCCCC9)ncnc87)nn6)cc5)cc4)nn3)c2n1 [6b, 4,4′-Bis{[1-(2-(4-(piperidin-1-yl)-7H-pyrrolo[2,3-d]pyrimidin-7-yl)ethyl)-1H-1,2,3-triazol-4-yl]methoxy}-1,1′-biphenyl]
IC50 [1, 8]: 24.7 ± 8.7 µM | IC50 ([2]; Homo sapiens, HeLa): 68.5 ± 3.2 µM | IC50 [4, 9]: 17.4 ± 6.3 µM | IC50 [5, 10]: 53.9 ± 2.1 µM | melting point: 137 to 139 °C

Now from value to molecule, other results behind:

IC50 [1, 8]: 35.7 ± 0.79 µM | IC50 ([2]; Homo sapiens, HeLa): 17.1 ± 1.3 µM | IC50 [4, 9]: 23.4 ± 4.2 µM | IC50 [5, 10]: 58.7 ± 10.2 µM | melting point: 233 to 236 °C
Molecule: C#CCOc1ccc(OCc2cn(CCn3cnc4c(N5CCCCC5)ncnc43)nn2)cc1 [9e, 6-(piperidin-1-yl)-9-{2-[4-((4-(prop-2-yn-1-yloxy)phenoxy)methyl)-1H-1,2,3-triazol-1-yl]ethyl}-9H-purine]

IC50 [1, 8]: 5.2 ± 2.2 µM | IC50 ([2]; Homo sapiens, HeLa): 3.8 ± 0.81 µM | IC50 [4, 9]: 8.1 ± 1.3 µM | IC50 [5, 10]: 12.3 ± 3.4 µM
Molecule: c1nc(N2CCCCC2)c2ncn(CCn3cc(COc4ccc(-c5ccc(OCc6cn(CCn7cnc8c(N9CCCCC9)ncnc87)nn6)cc5)cc4)nn3)c2n1 [9b, 4,4′-Bis((1-(2-(6-(piperidin-1-yl)-9H-purin-9-yl)ethyl)-1H-1,2,3-triazol-4-yl)methoxy)-1,1′-biphenyl]
IC50 [3]: 0.79 µM

IC50 [1, 8]: > 100 µM | IC50 ([2]; Homo sapiens, HeLa): > 100 µM | IC50 [4, 9]: > 100 µM | IC50 [5, 10]: > 100 µM | melting point: > 280 °C
Molecule: C#CCOc1ccc(OCc2cn(CCn3cnc4c(N)ncnc43)nn2)cc1 [11e, 6-amino-9-{2-[4-((4-(prop-2-yn-1-yloxy)phenoxy)methyl)-1H-1,2,3-triazol-1-yl]ethyl}-9H-purine]

IC50 [1, 8]: > 100 µM | IC50 ([2]; Homo sapiens, HeLa): > 100 µM | IC50 [4, 9]: > 100 µM | IC50 [5, 10]: > 100 µM | melting point: 226 to 228 °C
Molecule: C#CCCCc1cn(CCn2cnc3c(N)ncnc32)nn1 [11g, 6-Amino-9-{2-[4-(pent-4-yn-1-yl)-1H-1,2,3-triazol-1-yl]ethyl}-9H-purine]

IC50 [1, 8]: 43.5 ± 4.4 µM | IC50 ([2]; Homo sapiens, HeLa): 16.2 ± 0.05 µM | IC50 [4, 9]: 9.1 ± 1.3 µM | IC50 [5, 10]: 53.5 ± 8 µM
Molecule: c1nc(N2CCCCC2)c2ncn(CCn3cc(COc4ccc(OCc5cn(CCn6cnc7c(N8CCCCC8)ncnc76)nn5)cc4)nn3)c2n1 [9a, 1,4-Bis{[1-(2-(6-(piperidin-1-yl)-9H-purin-9-yl)ethyl)-1H-1,2,3-triazol-4-yl]methoxy}benzene]
IC50 [3]: 0.76 µM

IC50 [1, 8]: 78 ± 2.1 µM | IC50 ([2]; Homo sapiens, HeLa): 6.4 ± 0.35 µM | IC50 [4, 9]: 25.8 ± 0.98 µM | IC50 [5, 10]: 49.3 ± 6.4 µM | melting point: 193 to 195 °C
Molecule: c1nc(N2CCCC2)c2ccn(CCn3cc(COc4ccc(OCc5cn(CCn6ccc7c(N8CCCC8)ncnc76)nn5)cc4)nn3)c2n1 [7a, 1,4-Bis{[1-(2-(4-(pyrrolidin-1-yl)-7H-pyrrolo[2,3-d]pyrimidin-7-yl)ethyl)-1H-1,2,3-triazol-4-yl]methoxy}benzene]
IC50 [3]: 0.81 µM

IC50 [1, 8]: 23.2 ± 3.2 µM | IC50 ([2]; Homo sapiens, HeLa): 3.9 ± 0.69 µM | IC50 [4, 9]: 2.9 ± 1 µM | IC50 [5, 10]: 9.3 ± 0.1 µM | melting point: 221 to 225 °C
Molecule: C#CCOc1ccc(-c2ccc(OCc3cn(CCn4cnc5c(N6CCCCC6)ncnc54)nn3)cc2)cc1 [9f, 6-(piperidin-1-yl)-9-{2-[4-(((4′-(prop-2-yn-1-yloxy)-[1,1′-biphenyl]-4-yl)oxy)methyl)-1H-1,2,3-triazol-1-yl]ethyl}-9H-purine]
IC50 [3]: 4.3 µM

IC50 [1, 8]: > 100 µM | IC50 ([2]; Homo sapiens, HeLa): 54.6 ± 5.2 µM | IC50 [4, 9]: 77.4 ± 3.5 µM | IC50 [5, 10]: 69 ± 1.2 µM | melting point: 187 to 189 °C
Molecule: c1nc(N2CCCC2)c2ccn(CCn3cc(COc4ccc(-c5ccc(OCc6cn(CCn7ccc8c(N9CCCC9)ncnc87)nn6)cc5)cc4)nn3)c2n1 [7b, 4,4′-Bis{[1-(2-(4-(pyrrolidin-1-yl)-7H-pyrrolo[2,3-d]pyrimidin-7-yl)ethyl)-1H-1,2,3-triazol-4-yl]methoxy}-1,1′-biphenyl]

IC50 [1, 8]: > 100 µM | IC50 ([2]; Homo sapiens, HeLa): > 100 µM | IC50 [4, 9]: > 100 µM | IC50 [5, 10]: > 100 µM | melting point: 191 to 193 °C
Molecule: C#CCOCc1cn(CCn2cnc3c(N)ncnc32)nn1 [11h, 6-amino-9-{2-[4-((prop-2-yn-1-yloxy)methyl)-1H-1,2,3-triazol-1-yl]ethyl}-9H-purine]

IC50 [1, 8]: > 100 µM | IC50 ([2]; Homo sapiens, HeLa): 80 ± 1.5 µM | IC50 [4, 9]: 65.3 ± 5.7 µM | IC50 [5, 10]: > 100 µM | melting point: 170 to 172 °C
Molecule: c1nc(N2CCCC2)c2ccn(CCn3cc(CCCc4cn(CCn5ccc6c(N7CCCC7)ncnc65)nn4)nn3)c2n1 [7c, 1,3-Bis{1-[2-(4-(pyrrolidin-1-yl)-7H-pyrrolo[2,3-d]pyrimidin-7-yl)ethyl]-1H-1,2,3-triazol-4-yl}propane]
